Test results as given in patent US6350768B1 (Aventis Pharma S.A., priority 1999, dated 2002).

System: purified rat motoneurons
Details: BDNF 1 ng/ml
Experimental: The effect of the combination has been studied on the cellular death of purified rat motoneurons which is induced by sera from patients suffering from amyotrophic lateral sclerosis.
Purified motoneurons prepared from the spinal cord of rat embryos at 14 days of gestation are cultured in the presence of optimum concentrations of recombinant “brain-derived neurotrophic factor” (BDNF), one of the principal neurotrophic factors for the survival of the motoneurons. […] After a further 2 hours, dilutions of dialyzed sera from patients suffering from ALS are added. On the next day, the number of surviving motoneurons is evaluated by direct counting under a phase contrast microscope.
The stock solution of gabapentin is prepared directly by dissolving 17.1 mg of gabapentin in 1 ml of double distilled water.
Rat embryos at 14 days of gestation (Charles River, France) are recovered after sacrificing the mother, under CO2 anesthesia, by pulling the neck. These embryos are placed in phosphate buffer (“phosphate-buffered saline”, PBS) free of calcium and magnesium (Life Technologies).
Unless otherwise stated, the composition of the media used is identical to that indicated in these references. Spinal cords from rat embryos at 14 days of gestation are dissected in sterile PBS and the ventral halves of each cord containing the motoneurons are subdissected. […]

In the case of `NCC1(CC(=O)O)CCCCC1` [Gabapentin], the “Number of motoneurons, Mean (± SEM)” value (mean of 8 measurements, 4 wells, ALS serum 0.1%, Gabapentin 10^−5 M alone) is reported as 5.0 and the “survival of the motoneurons” value (medium treated with gabapentin alone, ALS serum) is reported as 8%.
